Patent US5152784A, “Prosthetic devices coated with a polypeptide with type IV collagen activity” (Regents of the University of Minnesota, priority 1991, dated 1992)
“Also recorded” adds a separate entry of the source.

How the values were obtained:
peptide Hep-III = molecular target: T1, peptide Hep-III (Homo sapiens, UniProt P02462); test: Competition of 3H-heparin binding to coated peptide Hep-III by glycosaminoglycans; conditions: Hep-III coated from 500 μg/ml; 3H-heparin 50,000 cpm per well; unlabeled glycosaminoglycan in increasing amounts
T1 construct: residues 531-543 from the amino-terminus of the α1 chain of type IV collagen; The single letter amino acid code for this polypeptide is GEFYFDLRLKGDK; made in house; host or cells: chemical solid-phase (Merrifield) peptide synthesis
Protocol: To check the specificity of the interaction between heparin and peptide Hep-III or whether the heparin structure was also critical to this interaction, heparin along with other sulfated glucosaminoglycans, dextran and chondroitin sulfate were used in competition experiments. A standard amount of […] of a solution containing 500 μg/ml of peptide Hep-III was coated on 96-well plates as described above. Wells were treated for two hours with 2 mg/ml BSA in wash buffer. Then, a final volume of 50 μl was added to each well, containing a standard amount of ^3 H-heparin (50,000 cpm per well) and various amounts of non-radioactive heparin, dextran or chondroitin sulfate. After incubating for two hours at 37° C., the wells were washed and radioactivity was counted as described above in Example 1.

[1] = Heparin binding to plastic plates coated with peptide
Protocol: The ability of the synthesized peptide Hep-III to interact with heparin when coated on 96-well plastic plates was evaluated. Stock solutions of peptide Hep-III at a concentration of 500 μg/ml were prepared in phosphate-buffered saline containing 0.02% sodium azide. Fifty μl from each concentration was coated on the 96-well plates and left to dry overnight at 28° C. Then, wells were treated for two hours with […] of 2 mg/ml BSA and 6 mM phosphate, 10 mM NaCl, 68 μM CaCl2, pH 6.8 (wash buffer) in order to minimize non-specific binding. Next 50 μl of ^3 H-heparin (10 μg/ml) was added at increasing concentrations (0 to 1400 ng/well) for two hours at 37° C. The wells were then washed three times with wash buffer containing 0.05% Triton X-100 and finally they were incubated for thirty minutes at 60° C. with 200 μl of 0.5N NaOH and 1% SDS. The amount of ^3 H-heparin bound at each concentration was quantitated with a Beckman LS-3801 liquid scintillation counter. […] Comparison with data obtained using exactly the same methodology indicate that peptide Hep-III is at least 10 times stronger than peptide Hep-I (TS-2 in U.S. Pat. No. 4,876,332) (see FIG. 5B) and about 100 times stronger than type IV collagen, when used in the same coating concentrations.

type IV collagen = molecular target: T2, type IV collagen (Homo sapiens, UniProt P02462+P08572); test: Inhibition of 3H-heparin binding to type IV collagen coated on plastic by peptide in solution; conditions: peptide in solution 0.5 mg/ml to 5 μg/ml; 3H-heparin 500 ng per well; type IV collagen coated at 60 μg/ml
T2 construct: intact, native type IV collagen coated on plastic
Protocol: Peptide Hep-III in solution (and not absorbed to plastic), was screened for the ability to inhibit the binding of heparin to intact, native type IV collagen coated on plastic. This experimental approach avoids problems due to differential coating of peptides in heparin binding assays. Type IV collagen at 60 μg/ml in PBS was coated on 96-well plates, using 50 μl per well and dried overnight at 28° C. The wells were then treated for two hours with 2 mg/ml BSA in wash buffer (described above in Example 1). Peptide Hep-III at various dilutions ranging from 0.5 mg/ml to 5 μg/ml in PBS and CHAPS (cholamido-propyl-dimethyl-ammoniopropane-sulfonate) (a detergent used to avoid non-specific sticking) was co-incubated with a standard amount of ^3 H-heparin (500 ng per well […]) for two hours at 37° C. and the mixture was then transferred to the collagen coated plate (50 μl) and allowed to incubate for another two hours at 37° C. The wells were then washed and radioactivity was counted as described above.

K-1735-M4 melanoma cells = test: Adhesion of melanoma cells to peptide-coated wells; assay type: cell-based, murine; conditions: 120 minutes, 37° C.
Description: Highly metastatic murmine melanoma cells, K-1735-M4 were originally provided by Dr. I. J. Fidler of Anderson Hospital, University of Texas Health Sciences Center, Houston, Tex. When the cells were received, a large number of early passage cells were propagated and frozen in liquid nitrogen. The tumor cells are usually cultured in vitro for no longer than six weeks. Following this period, the cells are discarded and new cells withdrawn from storage for use in further in vitro or in vivo experiments. This precaution is taken to minimize phenotypic drift that can occur as a result of continuous in vitro passage. The cells were cultured in Dulbecco's Modified Eagle's Medium containing 5% heat inactivated fetal calf serum. The cultures were grown in 37° C. incubators with a humidified atmosphere containing 5% CO2. Cells were subcultured twice weekly by releasing cells gently from the flask, using 0.05% trypsin and 1 mM EDTA.
Cultures of cells which were 60-80% confluent were metabolically labeled for 24 hours with the addition of 3 mCi/ml of ^3 H-td (tritiated thymidine). On the day of the assay, the cells were harvested by trypsinization, the trypsin was inhibited by the addition of serum, and the cells were washed free of this mixture and resuspended in DMEM buffered with HEPES at pH 7.2. […] The solubilized cells were then quantitated using a liquid scintillation counter. […]

melanoma cell line (M4) = test: Inhibition of melanoma cell adhesion to type IV collagen-coated wells by peptide in solution; assay type: cell-based, murine; conditions: cells coincubated 20 min with peptide in solution, then 20 min on collagen-coated wells
Protocol: Cells were grown, labeled and harvested as described in Example 4, but after detachment and washing they were coincubated for 20 min. in the presence of various concentrations of peptide Hep-III in solution. They were then applied for another 20 min. on type IV collagen-coated plastic wells. At the end of the incubation the same treatment described in Example 4 was used.

[2] = system: Bovine aortic endothelial cells; test: Direct adhesion of endothelial cells to peptide-coated plastic; assay type: cell-based; conditions: coated at increasing concentrations; 120 min, 37° C.
Protocol: Bovine aortic endothelial cells were isolated according to the following protocol. Aortas were obtained from a local slaughterhouse, washed in cold phosphate buffered saline (PBS) (136 mM NaCl, 2.6 mM KCl, 15.2 mM Na2 HPO4, pH 7.2) and processed within 2 hours. Crude collagenase (CLS III, 125-145 units per mg dry weight, Cooper Biomedical) was used at 2 mg/ml in Dulbecco's modified Eagle's medium (DMEM) (GIBCO). The vessel was clamped at the distal end, filled with the collagenase-PBS solution and digestion was carried out for 10 minutes. The lumenal contents were harvested, followed by the addition of fresh collagenase for two additional 10-minute periods. The enzyme-cell suspensions were added to an equal volume of DMEM containing 10% fetal bovine serum (FBS) to inhibit the enzyme and spun in a centrifuge at 400×g for 10 minutes. The resulting cell pellet was resuspended in DMEM containing 10% FBS, 100 units/ml of penicillin G, 100 μg/ml of streptomycin and 100 μg/ml of crude fibroblast growth factor. Cells are in 75 cm^2 flasks in a humidified 5% CO2 atmosphere at 37° C. Cultures were fed twice a week with the same medium and cells were used in assays when approximately 75% confluent. The cells were labeled for 24 hours prior to use with a mixture of ^35 S-labeled amino acids (3 mCi). […]

endothelial cells [3] = test: Direct binding of 125I-labeled peptide Hep-III to endothelial cell surface; parameters: species or system bovine; conditions: about 5,000 cells; 15 min, 4° C.; increasing peptide concentrations
Protocol: (§1) Endothelial and melanoma cells were grown in culture as described in Examples 4, 5, and 6 (supra). Cells used for this type of experiment were not labeled with radioactivity. Unlabeled cells were harvested by trypsinization (supra) on the day of the experiment. About 5,000 cells were mixed with 50 μl of a given concentration of peptide Hep-III in solution. Increasing concentrations of peptide Hep-III were used. The cells were incubated with the iodinated peptide for 15 min. at 4° C. and they were then pelleted by centrifugation. The cells were then resuspended and washed 3 times with DMEM containing 2 mg/ml BSA and 50 mM Hepes. Following the washes, the cells were pelleted for a final time in plastic tubes, the supernatant was decanted and the radioactivity of the pellet was quantitated in a Beckman scintillation counter. The binding of peptide Hep-III to endothelial cells is saturable (FIG. 10B)--an indication of specificity. […] These experiments indicate that peptide Hep-III specificity interacts with the surfaces of both endothelial cells and melanoma.

melanoma cells [4] = test: Direct binding of 125I-labeled peptide Hep-III to melanoma cell surface; parameters: species or system murine; conditions: about 5,000 cells; 15 min, 4° C.; increasing peptide concentrations
Protocol: as §1

melanoma cells [5] = test: Inhibition of 125I-Hep-III binding to melanoma cell surface by excess unlabeled peptide; parameters: species or system murine; conditions: unlabeled peptide up to 500-fold excess; 15 min, 4° C.
Protocol: (§2) Melanoma and endothelial cells were grown in culture as discussed in Examples 4, 5, 6, and 7A (supra). On the day of the experiment, the cells were harvested by trypsinization (supra) and were co-incubated with 50 μl of peptide Hep-III. 50 μl a constant amount of ^125 I-labeled peptide Hep-III was mixed with increasing concentrations of unlabeled peptide Hep-III or a control peptide (maximal excess of unlabeled peptide: 500-fold over radiolabeled Hep-III). 50 μl of each concentration of unlabeled peptide which was mixed with radiolabeled Hep-III were then added to cells in suspension (5,000 cells per concentration of peptide). The cells were incubated with the mixture of unlabeled-radiolabeled peptide for 15 min. at 4° C. and they were then pelleted. The cells were subsequently washed and bound radioactivity was quantitated as described in Example 7A. […] These experiments provide confirmation that a specific interaction occurs between melanoma and endothelial-cell surfaces and peptide Hep-III.

endothelial cells [6] = test: Inhibition of 125I-Hep-III binding to endothelial cell surface by excess unlabeled peptide; parameters: species or system bovine; conditions: unlabeled peptide up to 500-fold excess; 15 min, 4° C.
Protocol: as §2

[7] = same methodology, same coating concentrations

T2 sequence (P02462 173-1669): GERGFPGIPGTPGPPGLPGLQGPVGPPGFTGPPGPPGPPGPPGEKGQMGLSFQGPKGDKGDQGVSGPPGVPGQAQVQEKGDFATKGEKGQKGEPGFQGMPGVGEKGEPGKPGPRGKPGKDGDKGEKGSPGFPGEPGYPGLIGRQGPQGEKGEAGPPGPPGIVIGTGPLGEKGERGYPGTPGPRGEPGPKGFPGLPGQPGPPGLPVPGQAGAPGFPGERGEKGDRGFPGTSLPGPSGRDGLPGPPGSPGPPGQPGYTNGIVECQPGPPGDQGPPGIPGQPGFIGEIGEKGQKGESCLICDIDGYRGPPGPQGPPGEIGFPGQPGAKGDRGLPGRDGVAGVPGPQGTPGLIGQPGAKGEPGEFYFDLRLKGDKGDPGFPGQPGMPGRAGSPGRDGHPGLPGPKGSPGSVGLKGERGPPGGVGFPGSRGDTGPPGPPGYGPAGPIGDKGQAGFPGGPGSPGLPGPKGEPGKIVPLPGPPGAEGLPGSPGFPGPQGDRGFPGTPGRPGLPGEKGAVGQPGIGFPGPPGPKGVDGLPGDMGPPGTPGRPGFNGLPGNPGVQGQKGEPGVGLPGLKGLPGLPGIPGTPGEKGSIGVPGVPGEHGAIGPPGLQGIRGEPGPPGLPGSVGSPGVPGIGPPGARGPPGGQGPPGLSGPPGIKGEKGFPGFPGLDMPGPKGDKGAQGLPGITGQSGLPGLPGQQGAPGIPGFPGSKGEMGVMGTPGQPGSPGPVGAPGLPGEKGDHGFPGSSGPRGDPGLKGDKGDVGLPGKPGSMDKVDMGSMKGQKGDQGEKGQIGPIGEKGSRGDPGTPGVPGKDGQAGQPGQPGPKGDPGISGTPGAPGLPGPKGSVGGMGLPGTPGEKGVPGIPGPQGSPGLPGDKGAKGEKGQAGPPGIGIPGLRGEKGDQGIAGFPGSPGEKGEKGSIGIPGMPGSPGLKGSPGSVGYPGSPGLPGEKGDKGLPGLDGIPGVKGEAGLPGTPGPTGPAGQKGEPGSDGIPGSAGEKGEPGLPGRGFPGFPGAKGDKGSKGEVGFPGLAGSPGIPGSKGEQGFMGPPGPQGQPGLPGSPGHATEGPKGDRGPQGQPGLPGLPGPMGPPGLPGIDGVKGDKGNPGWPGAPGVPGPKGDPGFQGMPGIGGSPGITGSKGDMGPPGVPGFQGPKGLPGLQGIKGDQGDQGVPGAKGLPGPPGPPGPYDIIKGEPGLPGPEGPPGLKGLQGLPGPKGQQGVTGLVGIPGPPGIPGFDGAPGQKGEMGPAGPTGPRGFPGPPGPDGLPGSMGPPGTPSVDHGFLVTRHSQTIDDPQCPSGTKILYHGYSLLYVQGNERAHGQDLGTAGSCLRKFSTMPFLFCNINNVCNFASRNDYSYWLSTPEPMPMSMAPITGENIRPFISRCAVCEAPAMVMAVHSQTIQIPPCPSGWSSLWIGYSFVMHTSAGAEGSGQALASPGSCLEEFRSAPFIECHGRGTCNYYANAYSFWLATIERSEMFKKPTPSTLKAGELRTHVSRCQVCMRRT
T2 sequence (P08572 184-1712): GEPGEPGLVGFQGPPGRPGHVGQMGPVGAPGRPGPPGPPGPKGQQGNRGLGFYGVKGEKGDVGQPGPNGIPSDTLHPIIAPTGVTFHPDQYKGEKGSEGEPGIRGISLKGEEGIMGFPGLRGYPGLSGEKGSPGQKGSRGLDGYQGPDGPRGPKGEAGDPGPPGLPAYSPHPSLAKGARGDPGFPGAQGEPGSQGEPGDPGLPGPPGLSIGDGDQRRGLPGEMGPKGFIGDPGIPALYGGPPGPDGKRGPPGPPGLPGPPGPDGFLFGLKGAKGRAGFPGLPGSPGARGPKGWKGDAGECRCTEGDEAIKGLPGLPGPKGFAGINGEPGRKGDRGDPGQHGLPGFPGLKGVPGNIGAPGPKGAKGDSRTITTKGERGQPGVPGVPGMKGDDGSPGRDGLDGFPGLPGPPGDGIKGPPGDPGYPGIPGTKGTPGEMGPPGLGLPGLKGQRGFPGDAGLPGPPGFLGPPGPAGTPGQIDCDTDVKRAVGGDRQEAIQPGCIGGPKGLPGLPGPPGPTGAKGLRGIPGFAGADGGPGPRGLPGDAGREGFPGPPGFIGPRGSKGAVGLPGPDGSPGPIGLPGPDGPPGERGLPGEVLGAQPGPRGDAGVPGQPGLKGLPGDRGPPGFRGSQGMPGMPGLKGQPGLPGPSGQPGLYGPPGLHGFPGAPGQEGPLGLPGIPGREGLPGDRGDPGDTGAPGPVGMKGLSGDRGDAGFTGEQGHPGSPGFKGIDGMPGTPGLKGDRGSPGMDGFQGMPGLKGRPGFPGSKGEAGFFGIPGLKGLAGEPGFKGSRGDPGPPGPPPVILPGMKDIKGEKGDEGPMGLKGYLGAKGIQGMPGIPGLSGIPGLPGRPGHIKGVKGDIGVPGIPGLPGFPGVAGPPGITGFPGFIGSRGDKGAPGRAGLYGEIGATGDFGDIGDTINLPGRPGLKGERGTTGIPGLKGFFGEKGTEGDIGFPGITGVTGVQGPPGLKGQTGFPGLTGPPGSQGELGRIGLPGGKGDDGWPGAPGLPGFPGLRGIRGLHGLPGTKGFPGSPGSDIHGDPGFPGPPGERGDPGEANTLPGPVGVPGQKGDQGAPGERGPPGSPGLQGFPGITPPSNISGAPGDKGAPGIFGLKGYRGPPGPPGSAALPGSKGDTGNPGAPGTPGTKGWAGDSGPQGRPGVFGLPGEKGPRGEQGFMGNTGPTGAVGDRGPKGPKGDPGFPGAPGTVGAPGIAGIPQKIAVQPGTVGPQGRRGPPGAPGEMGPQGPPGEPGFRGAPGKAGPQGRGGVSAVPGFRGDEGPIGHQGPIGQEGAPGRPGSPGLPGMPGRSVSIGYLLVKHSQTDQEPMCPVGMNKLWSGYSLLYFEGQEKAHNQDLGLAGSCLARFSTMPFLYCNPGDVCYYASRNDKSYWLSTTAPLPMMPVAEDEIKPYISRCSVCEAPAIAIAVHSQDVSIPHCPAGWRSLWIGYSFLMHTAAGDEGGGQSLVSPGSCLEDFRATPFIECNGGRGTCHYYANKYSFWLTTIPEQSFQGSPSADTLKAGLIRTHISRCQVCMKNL

Substance: chondroitin sulfate
- competition for the binding of tritiated heparin to peptide Hep-III (peptide Hep-III): cannot mimic this effect except at extremely high concentrations

Substance: dextran
- competition for the binding of tritiated heparin to peptide Hep-III (peptide Hep-III): substantially more dextran is needed to achieve similar levels of competition

Substance: gly-glu-phe-tyr-phe-asp-leu-arg-leu-lys-gly-asp-lys (GEFYFDLRLKGDK) [Hep-III, …; type IV collagen residues 531-543 from the amino-terminus of the α1 chain]
- binding of 3H-heparin to coated peptide ([1]; peptide coated on 96-well plastic plates, 3H-heparin 0 to 1400 ng/well, 2 h, 37° C.): extremely potent promoter of heparin-binding to synthetic substrates; also recorded: strong binding to heparin; also recorded: very potent binder of heparin
- heparin binding strength relative to peptide Hep-I (TS-2) [1, 7]: at least 10 times
- heparin binding strength relative to type IV collagen [1, 7]: about 100 times
- inhibition of heparin binding to type IV collagen (type IV collagen): strong inhibitor of heparin binding to type IV collagen
- maximal melanoma cell adhesion (K-1735-M4 melanoma cells; peptide coated at increasing concentrations): 70,000 dpm
- melanoma cell adhesion (K-1735-M4 melanoma cells; peptide concentration 0.5 μg/well): 80 % of input
- decrease of melanoma cell binding to type IV collagen-coated substrata (melanoma cell line (M4)): dramatically decrease the binding of melanoma cells
- endothelial cell adhesion to coated substrate (in words) [2]: promotes substantial adhesion of endothelial cells even at very low plating concentrations
- binding of 125I-labeled peptide to endothelial cell surface (endothelial cells [3]): saturable
- binding of 125I-labeled peptide to melanoma cell surface (melanoma cells [4]): with a tendency for saturation at the higher concentrations used
- competition of radiolabeled Hep-III binding to melanoma cells by unlabeled peptide (melanoma cells [5]): can be competed only by an excess of unlabeled peptide Hep-III
- competition of radiolabeled Hep-III binding to endothelial cells by unlabeled peptide (endothelial cells [6]): could efficiently compete

Substance: heparin
- competition for the binding of tritiated heparin to peptide Hep-III (peptide Hep-III): able to compete for the binding of tritiated heparin to peptide Hep-III at very low concentrations
